This passage reports IC50 results from US4673684A, “Amide derivatives and 5-lipoxygenase inhibitors containing the same as an active ingredient” (Terumo Corporation, priority 1984, dated 1987).

This assay deals with T1, 5-lipoxygenase (Mus musculus, UniProt P48999).
T1 construct: The supernatant is used as a 5-lipogenase enzyme solution; endogenous in cells
T1 sequence (P48999 1-674): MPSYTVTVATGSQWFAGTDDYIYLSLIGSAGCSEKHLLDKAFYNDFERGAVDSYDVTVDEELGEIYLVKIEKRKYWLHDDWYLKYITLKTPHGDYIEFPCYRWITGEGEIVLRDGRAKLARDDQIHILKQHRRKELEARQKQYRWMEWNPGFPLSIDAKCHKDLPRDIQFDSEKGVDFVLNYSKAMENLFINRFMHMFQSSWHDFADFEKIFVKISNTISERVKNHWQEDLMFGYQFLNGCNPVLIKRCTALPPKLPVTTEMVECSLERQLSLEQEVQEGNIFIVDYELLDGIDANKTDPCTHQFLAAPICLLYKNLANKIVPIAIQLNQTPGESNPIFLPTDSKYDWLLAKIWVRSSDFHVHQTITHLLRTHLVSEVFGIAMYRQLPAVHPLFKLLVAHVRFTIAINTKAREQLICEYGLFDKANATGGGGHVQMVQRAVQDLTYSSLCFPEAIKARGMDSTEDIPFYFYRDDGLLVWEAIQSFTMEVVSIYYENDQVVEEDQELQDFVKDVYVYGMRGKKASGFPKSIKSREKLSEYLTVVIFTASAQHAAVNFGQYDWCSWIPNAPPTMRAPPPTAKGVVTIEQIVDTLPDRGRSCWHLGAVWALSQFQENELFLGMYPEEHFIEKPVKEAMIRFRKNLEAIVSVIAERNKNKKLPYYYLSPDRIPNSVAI
As to the kind of experiment: 5-Lipoxygenase-inhibiting Activity (decrease in 5-HETE and LTB4 formed from radiolabelled arachidonic acid, enzyme solution from mouse mastcytoma cells P-815). Type of assay: biochemical. Particulars: 5-HETE and LTB4 formation; mouse mastcytoma P-815 enzyme solution; 37° C., 5 min; pH 7.4; with indomethacin; read-out: 50% Inhibitory concentration IC50. The method in brief:
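Enzyme is sonicated 10,000 rpm supernatant of P-815 mouse mastocytoma cells, reacted 5 min at 37 °C with radiolabelled arachidonic acid, indomethacin and CaCl2 in pH 7.4 phosphate buffer. 5-HETE and LTB4 separated by TLC and counted by scintillation; IC50 or IC30 is concentration reducing product to 50% or 30% of control.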

pIC50: −log10 of the molar value.

With `COc1cc(/C=C/C=C/C(=O)NCCCCN2CCC(OC(c3ccccc3)c3ccccc3)CC2)cc(OC)c1O` [Example 133, 1-[4-[5-(3,5-dimethoxy-4-hydroxyphenol)-2,4-pentadienoyl]aminobutyl]-4-benzydroxypiperidine], the pIC50 is 7.70.

In the case of `COc1cc(/C=C/C=C/C(=O)N2CCN(CCCn3cnc4c3c(=O)n(C)c(=O)n4C)CC2)cc(OC)c1OC` [Example 134, 7-[3-[4-[5-(3,4,5-trimethoxyphenyl)-2,4-pentadienoyl]piperazi-1-nyl]-1-propyl]theophylline], the pIC50 is 4.70.
